Assay results from ChEMBL document CHEMBL4393679, “Structure-Guided Drug Design of 6-Substituted Adenosine Analogues as Potent Inhibitors of Mycobacterium tuberculosis Adenosine Kinase” (J Med Chem, 2019).
Activity calls are given as the source filed them. The rule behind the calls is not given here.

What was measured:
[1] = molecular target: Adenosine kinase (Mycobacterium tuberculosis (strain ATCC 25618 / H37Rv)) (UniProt P9WID5); assay: Inhibition of wild-type N-terminal TEV cleavage site-fused/His-tagged Mycobacterium tuberculosis H37Rv adenosine kinase expressed in Escherichia coli BL21 (DE3) at 12.5 uM using adenosine as substrate in presence of ATP and PEP by pyruvate kinase-lactate dehydrogenase coupled UV-vis spectrophotometric method relative to control
[2] = molecular target: Adenosine kinase (Mycobacterium tuberculosis (strain ATCC 25618 / H37Rv)) (UniProt P9WID5); assay: Competitive-inhibition of wild-type N-terminal TEV cleavage site-fused/His-tagged Mycobacterium tuberculosis H37Rv adenosine kinase expressed in Escherichia coli BL21 (DE3) using varying levels of adenosine as substrate in presence of ATP and PEP by pyruvate kinase-lactate dehydrogenase-coupled UV-vis spectrophotometric based Cheng-Prusoff equation analysis
[3] = Toxicity in ND4 Swiss Webster mouse at 10 mg/kg, po administered as single dose via gavage; format: organism-based; conditions: in vivo
[4] = Toxicity in ND4 Swiss Webster mouse assessed as change in body weight at 50 to 200 mg/kg, po administered once daily via gavage for 3 days measured twice daily during compound dosing; format: organism-based; conditions: in vivo, 72 h
[5] = Toxicity in ND4 Swiss Webster mouse at 50 to 200 mg/kg, po administered once daily via gavage for 3 days measured twice daily during compound dosing; format: organism-based; conditions: in vivo, 72 h

Chain of Adenosine kinase (Mycobacterium tuberculosis (strain ATCC 25618 / H37Rv)) (P9WID5 2-324 limits assumed): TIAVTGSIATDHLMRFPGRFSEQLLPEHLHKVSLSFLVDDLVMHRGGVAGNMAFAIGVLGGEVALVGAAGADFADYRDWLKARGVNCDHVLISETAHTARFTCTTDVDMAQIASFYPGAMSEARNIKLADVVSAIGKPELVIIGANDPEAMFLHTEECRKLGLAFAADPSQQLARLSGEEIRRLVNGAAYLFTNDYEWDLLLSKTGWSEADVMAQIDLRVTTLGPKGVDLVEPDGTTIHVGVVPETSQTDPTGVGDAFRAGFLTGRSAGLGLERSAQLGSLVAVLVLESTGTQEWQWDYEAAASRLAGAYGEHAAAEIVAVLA

Compound | inhibition [1] | inhibition [2] | Activity [3] | Activity [4] | Activity [5]
Cc1ccc(S(=O)(=O)NC[C@H]2O[C@@H](n3cnc4c(N5CCN(c6ccc(C(F)(F)F)cc6)CC5)ncnc43)[C@H](O)[C@@H]2O)cc1 | 53% |  |  |  | 
OC[C@H]1O[C@@H](n2cnc3c(N4CCN(c5ccc(-c6ccccc6)cc5)CC4)ncnc32)[C@H](O)[C@@H]1O |  | Active | Non-Toxic | Non-Toxic | Non-Toxic
